In patent publication US20150034084A1, “[…] NITRIC OXIDE FOR TREATING RESPIRATORY DISEASES” (Advanced Inhalation Therapies (AIT) Ltd., priority 2012, published 2015):

Tests used:
[1] = tested on: chronic, non-healing wound; conditions: topical 200 ppm gNO, cited from earlier work
[2] = tested on: human respiratory syncytial virus (rgRSV30); test: RSV exposure to 160 ppm gNO for 30 minutes, plaque/fluorescence assay; format: cell-based; conditions: single 30 minutes exposure to 160 ppm gNO
[3] = Phase I open label safety study of intermittent 160 ppm gNO inhalation: adverse events, vital signs, oxygenation; format: in vivo, human
From the text: 10 healthy adult volunteer subjects (5 males, 5 females), aged 20 to 62 years, were enrolled in the study after screening their medical history, a physical examination, pulmonary function tests and blood values. Exclusion criteria included individuals less than 19 years of age, pregnant females and unwilling to practice birth control during the study, diagnosed with pulmonary disease, epistaxis, hemoptysis, methemoglobinemia, organ transplant recipient or receiving antibiotic therapy.
After obtaining informed consent, treatment was initiated within 5 days of enrollment. Subjects were housed in a hospital ward and received 160 ppm gNO for 30 minutes every four hours (Q4h), five times a day, for five consecutive days by inhalation. Subjects returned for follow-up evaluations 3, 7 and 21 days after the final gNO administration. Subject safety was determined by monitoring vital signs, methemoglobin levels, lung function, blood chemistry, hematology, prothrombin time, inflammatory cytokine/chemokines levels and endothelial activation. These parameters were compared to baseline and at various time-points during and after gNO administration.
Subjects were administered gNO through a modified disposable mouthpiece to maximize mixing. Inspiration was spontaneously initiated by the subject from a conventional intermittent positive pressure breathing respirator (Mark-7, Carefusion, USA) in fixed flow mode delivering 48 liters per minute (LPM). Flows of gas were verified with a calibrated mass flow meter (TSI, USA). Gaseous nitric oxide (gNO, obtained at INOmax, Ikaria, USA) at a concentration of 800 ppm delivered at a flow of 12 LPM was titrated into a distal delivery port on the mouth piece connected to the respirator during inspiratory phase only (pressure switch). The Mark 7 respirator was supplied by an air/oxygen blender (Bird Sentry, Carefusion, USA) set to deliver 26% oxygen.
General medical examinations were performed by a pulmonary physician on screening and on days 8, 12 and 26 to obtain oxygenation and vital sign measurements. Abbreviated physical examination by a registered nurse was carried out each day prior to initiation of treatments on days 1-5. Oxygenation was measured with a pulse oximeter (Rad 57, Masimo Corporation, USA) which was used according to manufacturer's guidelines to measure functional oxygen saturation of arterial hemoglobin (SpO2) and heart rate. These parameters were measured continuously during every gNO administration and for 3.5 hours after the first treatment of the day. Cardiovascular status was determined by monitoring heart rate, blood pressure, respiratory rate and temperature. Values were recorded prior to the start of each gNO administration, following a 5 minute rest. During treatments, vital signs (except temperature) were also performed 15 minutes after the start of the treatment and at the end of gNO administration and recorded. After the first treatment each day, vital signs were recorded at every 30 minutes until the start of the second gNO administration of the day.

P. aeruginosa (ATCC) = conditions: 200 ppm gNO, saline; cited from earlier work
[4] = 160 ppm gNO 30 min, 5 times a day, 5 days, 10 healthy adults
[5] = during or after gNO administration, 160 ppm

[N]=O [gNO, nitric oxide]
reduction of wound size ([1]; at one week): 42% | biofilm on wound ([1]; within the first three days of treatment): no longer visibly present | viral viability ([2]; starting level 500 PFU): substantially nullified | reduction of virus viability (factor) ([2]; starting level 1000 PFU): ~10 | reduction of virus viability (factor) ([2]; starting level 2000 PFU): ~10 | minor adverse events reported [3, 4]: Three minor adverse events were reported | significant adverse events [3, 4]: no significant adverse events were observed | tolerability of treatments ([3]; 160 ppm gNO 30 min, 5 times a day, 5 days, 10 healthy adults, 250 administrations): All treatments were well tolerated | lowest observed SpO2 ([3]; 160 ppm gNO intermittent inhalation): 93% | SpO2 levels over time, pretreatment vs post treatment ([3]; 160 ppm gNO, not significant statistically nor clinically): decreased slightly | vital signs ([3]; during and after gNO administration, 160 ppm): all vital signs remained within normal limits | blood pressure [3, 5]: no drop in blood pressure | incidences of hypoxemia (less than 85% SpO2) [3, 5]: No sudden incidences of hypoxemia | LD100 (P. aeruginosa (ATCC)): 3 h | Latent Period (P. aeruginosa (ATCC)): 1 h | −2.5 Log10 (P. aeruginosa (ATCC)): 2.1 hours
